The values that follow come from PubChem BioAssay (NCI).

Test systems include OVCAR-5 ovarian; EKVX NSCLC; ACHN renal; NCI/ADR-RES ovarian; UACC-257 melanoma; HCT-15 colon; SF-295 CNS; MDA-MB-231 breast; SK-MEL-28 melanoma; UACC-62 melanoma; DU-145 prostate; T-47D breast.
Common to all, as to assay: NCI-60 cell line screen, 48 h

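Method: 48-hour compound exposure of cells in 96-well plates, five concentrations, linear interpolation of endpoints. GI50 is the concentration that inhibits growth by half. TGI: total growth inhibition.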

Turning to `CCCCCCCCCCCCCCCCCCOc1ccccc1CC(=O)OCC[N+](C)(C)C`, the GI50 was 1.45 µM in the assay on OVCAR-5 ovarian; 2.17 µM in the assay on EKVX NSCLC; 1.75 µM in the assay with ACHN renal; 9.84 µM with NCI/ADR-RES ovarian; 2.34 µM in the assay with UACC-257 melanoma; 2.94 µM in the assay with HCT-15 colon. Moreover, the GI50 is 2.03 µM in the assay with SF-295 CNS; 1.57 µM with MDA-MB-231 breast; 1.63 µM in the assay on SK-MEL-28 melanoma; 1.57 µM with UACC-62 melanoma; 1.71 µM in the assay with DU-145 prostate; 2.06 µM with T-47D breast. Besides, the TGI worked out at 2.89 µM in the assay with OVCAR-5 ovarian; 5.4 µM with EKVX NSCLC; 3.72 µM with ACHN renal; 35.7 µM with NCI/ADR-RES ovarian; 6.34 µM in the assay with UACC-257 melanoma; 11.5 µM with HCT-15 colon. For the same compound, the TGI in the assay on SF-295 CNS was 4.52 µM; with MDA-MB-231 breast it was 3.21 µM; in the assay on SK-MEL-28 melanoma it was 3.57 µM; in the assay on UACC-62 melanoma, 3.51 µM; in the assay on DU-145 prostate, 3.09 µM; with T-47D breast, 4.89 µM.
